Experimental data published in patent publication US20200339511A1, “Substituted indoline derivatives as dengue viral replication inhibitors” (priority 2016, published 2020).

How the values were obtained:
DENV-2 16681 strain = assay: DENV-2 antiviral assay (eGFP-labeled virus in Vero cells); type: cell-based, Dengue virus; settings: DENV-2 16681 eGFP, MOI 0.5, 3 days
Method: The antiviral activity of all the compounds of the invention was tested the against DENV-2 16681 strain which was labeled with enhanced green fluorescent protein (eGPF). The culture medium consists of minimal essential medium supplemented with 2% of heat-inactivated fetal calf serum, 0.04% gentamycin (50 mg/mL) and 2 mM of L-glutamine. Vero cells, obtained from ECACC, were suspended in culture medium and 25 μL was added to 384-well plates (2500 cells/well), which already contain the antiviral compounds. Typically, these plates contain a 5-fold serial dilution of 9 dilution steps of the test compound at 200 times the final concentration in 100% DMSO (200 nL). […] Finally, each plate contains wells which are assigned as virus controls (containing cells and virus in the absence of compound), cell controls (containing cells in the absence of virus and compound) and medium controls (containing medium in the absence of cells, virus and compounds). To the wells assigned as medium control, 25 μL of culture medium was added instead of Vero cells. Once the cells were added to the plates, the plates were incubated for 30 minutes at room temperature to allow the cells to distribute evenly within the wells. Next, the plates were incubated in a fully humidified incubator (37° C., 5% CO2) until the next day. Then, DENV-2 strain 16681, labeled with eGFP, was added at a multiplicity of infection (MOI) of 0.5. Therefore, 15 μL of virus suspension was added to all the wells containing test compound and to the wells assigned as virus control. In parallel, 15 μL of culture medium was added to the medium and cell controls. Next, the plates were incubated for 3 days in a fully humidified incubator (37° C., 5% CO2). At the day of the read out, the eGFP fluorescence was measured using an automated fluorescence microscope at 488 nm (blue laser). Using an in-house LIMS system, inhibition dose response curves for each compound were calculated and the half maximal effective concentration (EC50) was determined. Therefore, the percent inhibition (I) for every test concentration is calculated using the following formula: I=100*(ST-SCC)/(SVC-SCC), ST, SCC and SVC are the amount of eGFP signal in the test compound, cell control and virus control wells, respectively. The EC50 represents the concentration of a compound at which the virus replication is inhibited with 50%, as measured by a 50% reduction of the eGFP fluorescent intensity compared to the virus control. The EC50 is calculated using linear interpolation (Table 1).

in vitro = settings: African green monkey
Vero cells = settings: African green monkey
[1] = Dengue virus, DENV2, Vero, 72 h

Compound	EC50 (DENV-2 16681 strain) [nM]	CC50 (in vitro) [nM]	EC50 (DENV-2 16681 strain; [1]) [nM]	CC50 (Vero cells) [nM]
COc1cc(NC(C(=O)N2CCc3ccc(OC(F)(F)F)cc32)c2ccc(Cl)cc2F)cc(OCCO)c1 (single isomer, unassigned) [Compound 6A, 2-(4-chloro-2-fluorophenyl)-2-((3-(2-hydroxyethoxy)-5-methoxyphenyl)amino)-1-(6-(trifluoromethoxy)indolin-1-yl)ethanone]	280	17000		
COc1cc(NC(C(=O)N2CCc3cc(OC)c(C(F)(F)F)cc32)c2ccc(Cl)cc2)cc(OCCO)c1 (single isomer, unassigned) [Compound 7A, 2-(4-chlorophenyl)-2-((3-(2-hydroxyethoxy)-5-methoxyphenyl)amino)-1-(5-methoxy-6-(trifluoromethyl)indolin-1-yl)ethanone]	790	21000		
COc1cc(NC(C(=O)N2CCc3ccc(C(F)(F)F)cc32)c2ccc(Cl)cc2OC)cc(OCCO)c1 (single isomer, unassigned) [Compound 1A, 2-(4-chloro-2-methoxyphenyl)-2-((3-(2-hydroxyethoxy)-5-methoxyphenyl)amino)-1-(6-(trifluoromethyl)indolin-1-yl)ethanone]	220	13000		
COc1cc(NC(C(=O)N2CCc3ccc(OC(F)(F)F)cc32)c2ccc(Cl)cc2F)cc(OCCO)c1 (racemic) [Compound 6, 2-(4-chloro-2-fluorophenyl)-2-((3-(2-hydroxyethoxy)-5-methoxyphenyl)amino)-1-(6-(trifluoromethoxy)indolin-1-yl)ethanone]		14000	6.2	
COc1cc(NC(C(=O)N2CCc3ccc(OC(F)(F)F)cc32)c2ccc(Cl)cc2)cc(OCCO)c1 (single isomer, unassigned) [Compound 3B, 2-(4-chlorophenyl)-2-((3-(2-hydroxyethoxy)-5-methoxyphenyl)amino)-1-(6-(trifluoromethoxy)indolin-1-yl)ethanone]	590			12000
COc1cc(NC(C(=O)N2CCc3cc(F)c(C(F)(F)F)cc32)c2ccc(Cl)cc2)cc(OCCO)c1 (single isomer, unassigned) [Compound 12B, 2-(4-chlorophenyl)-1-(5-fluoro-6-(trifluoromethyl)indolin-1-yl)-2-((3-(2-hydroxyethoxy)-5-methoxyphenyl)amino)ethanone]	400			11000
COc1cc(NC(C(=O)N2CCc3cc(OC)c(C(F)(F)F)cc32)c2ccc(Cl)cc2F)cc(OCCO)c1 (racemic) [Compound 8, 2-(4-chloro-2-fluorophenyl)-2-((3-(2-hydroxyethoxy)-5-methoxyphenyl)amino)-1-(5-methoxy-6-(trifluoromethyl)indolin-1-yl)ethanone]		> 25000	4.4	
COc1cc(NC(C(=O)N2CCc3c(C)cc(C(F)(F)F)cc32)c2ccc(Cl)cc2)cc(OCCO)c1 (single isomer, unassigned) [Compound 10A, 2-(4-chlorophenyl)-2-((3-(2-hydroxyethoxy)-5-methoxy-phenyl)amino)-1-(4-methyl-6-(trifluoromethyl)indolin-1-yl)ethanone]	1300	11000		
COc1cc(NC(C(=O)N2CCc3cc(OC)c(C(F)(F)F)cc32)c2ccc(Cl)cc2OC)cc(OCCO)c1 (single isomer, unassigned) [Compound 11A, 2-(4-chloro-2-methoxyphenyl)-2-((3-(2-hydroxyethoxy)-5-methoxyphenyl)amino)-1-(5-methoxy-6-(trifluoromethyl)indolin-1-yl)ethanone]	330	> 25000		
COc1cc(NC(C(=O)N2CCc3cc(OC)c(OC(F)(F)F)cc32)c2ccc(Cl)cc2)cc(OCCO)c1 (single isomer, unassigned) [Compound 13B, 2-(4-chlorophenyl)-2-((3-(2-hydroxyethoxy)-5-methoxyphenyl)amino)-1-(5-methoxy-6-(trifluoromethoxy)indolin-1-yl)ethanone]	280			> 25000
COc1cc(NC(C(=O)N2CCc3ccc(OC(F)(F)F)cc32)c2ccc(Cl)cc2OC)cc(OCCO)c1 (single isomer, unassigned) [Compound 5B, 2-(4-chloro-2-methoxyphenyl)-2-((3-(2-hydroxyethoxy)-5-methoxyphenyl)amino)-1-(6-(trifluoromethoxy)indolin-1-yl)ethanone]	760			14000
COc1cc(NC(C(=O)N2CCc3ccc(C(F)(F)F)cc32)c2ccc(Cl)cc2F)cc(OCCO)c1 (racemic) [Compound 2, 2-(4-chloro-2-fluorophenyl)-2-((3-(2-hydroxyethoxy)-5-methoxyphenyl)amino)-1-(6-(trifluoromethyl)indolin-1-yl)ethanone]		12000	8.9	
COc1cc(NC(C(=O)N2CCc3c(C)cc(OC(F)(F)F)cc32)c2ccc(Cl)cc2)cc(OCCO)c1 (single isomer, unassigned) [Compound 9A, 2-(4-chlorophenyl)-2-((3-(2-hydroxyethoxy)-5-methoxy-phenyl)amino)-1-(4-methyl-6-(trifluoromethoxy)indolin-1-yl)ethanone]	1000	13000		
COc1cc(NC(C(=O)N2CCc3cc(OC)c(C(F)(F)F)cc32)c2ccc(Cl)cc2)cc(OCCO)c1 (racemic) [Compound 7, 2-(4-chlorophenyl)-2-((3-(2-hydroxyethoxy)-5-methoxyphenyl)amino)-1-(5-methoxy-6-(trifluoromethyl)indolin-1-yl)ethanone]		11000	2.3	
COc1cc(NC(C(=O)N2CCc3cc(OC)c(C(F)(F)F)cc32)c2ccc(Cl)cc2F)cc(OCCO)c1 (single isomer, unassigned) [Compound 8A, 2-(4-chloro-2-fluorophenyl)-2-((3-(2-hydroxyethoxy)-5-methoxyphenyl)amino)-1-(5-methoxy-6-(trifluoromethyl)indolin-1-yl)ethanone]	460			> 25000
COc1cc(NC(C(=O)N2CCc3ccc(C(F)(F)F)cc32)c2ccc(Cl)cc2F)cc(OCCO)c1 (single isomer, unassigned) [Compound 2A, 2-(4-chloro-2-fluorophenyl)-2-((3-(2-hydroxyethoxy)-5-methoxyphenyl)amino)-1-(6-(trifluoromethyl)indolin-1-yl)ethanone]	320	18000		
